The target in series [1] is T1, WT-TTR (Homo sapiens, UniProt P02766).
T1 construct: made in house
Put plainly: time course analysis of WT-TTR fibril formation inhibition. Particulars: for rate of TTR amyloidogenesis mediated by partial acidification relative to control: inhibitor 7.2 and 3.6 μM, WT-TTR 3.6 μM, pH 4.4, turbidity at 500 nm. Format: biochemical. The method, then: Time course analysis of WT-TTR fibril formation inhibition by compounds 25, 47, and 64. Compounds 25, 47, and 64 were dissolved in DMSO to provide 7.2 mM primary stock solutions (10× stocks), from which 5- and 10-fold DMSO dilutions yielded 1.44 mM (2×) and 0.72 mM (1×) secondary stock solutions, respectively. 495 μL of 0.4 mg/mL (7.2 μM) WT-TTR solution (10 mM sodium phosphate, 100 mM KCl, and 1 mM EDTA, pH 7.2), and 5 μL of either the 1.44 or 0.72 mM inhibitor secondary stock solutions were added to disposable UV cuvettes, vortexed briefly, then incubated for 30 min at 25° C. The pH was then adjusted to 4.4 with addition of 500 μL of acidic buffer (100 mM acetate, 100 mM KCl, 1 mM EDTA, pH 4.2), and the final 1 mL solutions were vortexed again and incubated in the dark at 37° C. without agitation. At 0, 4, 8, 12, 25, 49, 74, 100, 122, 145, and 169 h time points after acidification, the solutions were vortexed and the turbidity at 500 nm was measured. Control samples containing 5 μL of pure DMSO were prepared and analyzed as above for comparison. Small molecule and TTR control samples were prepared in groups of 10 to prevent disturbance of the cuvettes during incubation. Samples were discarded after their turbidities were measured.
FIG. 10 is a plot of the timecourse analysis of WT-TTR (3.6 μM) fibril formation mediated by partial acid denaturation in the absence (▴) and presence of 7.2 μM (⋄) and 3.6 μM (◯) inhibitors 25, 47, and 64, as measured by turbidity at 500 nm (see color scheme within Figure to differentiate inhibitors). It is hard to discern which compound is most efficacious in the black and white plot.

Series [2] in a line: precipitation of small molecules under acid-mediated amyloidogenic conditions in the absence of TTR. Type of series: physicochemical. Particulars: 3.6 μM, pH 4.4, 37° C., 72 h. As to the method:
TTR amyloid inhibition efficacy was probed using a stagnant fibril formation assay described previously, wherein partial denaturation was triggered by acidification (pH 4.4, 37° C.) (Colon, W.; Kelly, J. W. Biochemistry 1992, 31, 8654-8660). Briefly, a test compound (7.2 or 3.6 μM) is incubated with TTR (3.6 μM) for 30 min in pH 7 buffer. Amyloidogenesis is then initiated by lowering to pH 4.4, where maximal fibril formation is observed with WT-TTR after 72 h (37° C.). […] From experience we know that excellent inhibitors allow <10% fibril formation at a small molecule concentration of 7.2 μM and <40% fibril formation at a concentration equal to that of WT-TTR (3.6 μM) (Hammarstrom, P.; et al. Science 2003, 299, 713-716; Klabunde, T.; et al. Nature Struct. Biol. 2000, 7, 312-321; Razavi, H.; et al. Angew Chem 2003, 42, 2758-2761; Miroy, G. J.; et al. Proc. Natl. Acad. Sci. USA 1996, 93, 15051-15056; Peterson, S. A.; et al. Proc. Natl. Acad. Sci. USA 1998, 95, 12956-12960; Baures, P. W.; et al. Bioorg. Med. Chem. 1998, 6, 1389-1401; Baures, P. W.; et al. Bioorg. Med. Chem. 1999, 7, 1339-1347; Petrassi, H. M.; et al. J. Am. Chem. Soc. 2000, 122, 2178-2192; McCammon, M. G.; et al. Structure 2002, 10, 851-863; Oza, V. B.; et al. J. Med. Chem. 2002, 45, 321-332; Saccheftini, J. C.; et al. Nature Rev. Drug Disc. 2002, 1, 267-275; Green, N. S.; et al. J. Am. Chem. Soc. 2003, 125, 13404-13414; Adamski-Werner, S. L.; et al. J. Med. Chem. 2004, 47, 355-374; Miller Sean, R.; et al. Lab. Inv. 2004, 84, 545-552). […] Therefore, when both the ligand and TTR are at equal concentrations, a population of TTR•I, TTR•I2 and unliganded TTR is observed, dictated by the dissociation constants. It is now established by other studies that inhibitor occupancy of only one of the two TTR binding sites is sufficient to stabilize the entire tetramer against amyloidogenesis (Wiseman, R. L.; et al. J. Am. Chem. Soc. 2005, in press). This is further supported by the observation herein that twenty-six of these dibenzofurans are excellent TTR amyloidogenesis inhibitors (<40% fibril formation) at a concentration equal to that of TTR (3.6 μM each, FIG. 3).

The next series concerns the target T2, WT-TTR tetramer (Homo sapiens, UniProt P02766).
T2 construct: made in house
Kind of series: time course analysis of WT-TTR tetramer dissociation by linked monomer unfolding in urea. The following applies: for rate of TTR tetramer dissociation in 6M urea: inhibitor 7.2 and 3.6 μM, TTR 3.6 μM, far-UV CD. Format: biochemical. The text has this: The ability of these inhibitors to impose kinetic stability on tetrameric TTR is best evaluated by assessing the rate of TTR tetramer dissociation (Hammarstrom, P.; et al. Science 2003, 299, 713-716; Hammarstrom, P.; et al. Proc. Natl. Acad. Sci. USA 2002, 99, 16427-16432). Under acidic conditions tetramer dissociation leads to amyloidogenesis, whereas in the presence of chaotropes (6M urea), tetramer dissociation leads to monomer unfolding. The influence of inhibitors 25, 47 and 64, representing the three structural classes of dibenzofuran-based inhibitors, on the rates of tetramer dissociation under acid- and urea-mediated denaturing conditions was probed. […] The rate of TTR tetramer dissociation in 6M urea is easily monitored by linking the slow quaternary structural changes to rapid tertiary structural changes that are easily monitored by spectroscopic methods (Hammarstrom, P.; et al. Proc. Natl. Acad. Sci. USA 2002, 99, 16427-16432).
Time course analysis of WT-TTR tetramer dissociation inhibition by compounds 25, 47, and 64 evaluated by linked-monomer unfolding in urea. Compounds 25, 47, and 64 were dissolved in DMSO to provide 10 mM primary stock solutions, from which 10-fold EtOH dilutions yielded 1 mM secondary stock solutions. 200 μL of 1.0 mg/mL (18 μM) WT-TTR solution (50 mM sodium phosphate, 100 mM KCl, and 1 mM EDTA, pH 7.2), and either 7.2 or 3.6 μL (2× and 1×, respectively) of 1 mM inhibitor secondary stock solutions were added to 2 mL eppendorf tubes, vortexed briefly, and incubated for 15 min at 25° C. 100 μL of the TTR•inhibitor solutions were added to 900 μL of urea buffer (6.67 M urea, 50 mM sodium phosphate, 100 mM KCl, 1 mM EDTA, pH 7.2), and the final 1 mL solutions were vortexed again and incubated in the dark at 25° C. without agitation. At 0, 4, 11, 24, 49, 73, 97, 122, 146, and 170 h time points after mixing with urea, the circular dichroism spectra were measured between […], with scanning every 0.5 nm and averaging for 5 s. […] Control samples containing 7.2 μL of 10% DMSO in EtOH were prepared and analyzed as above for comparison. […] TTR tetramer dissociation is linked to the rapid (˜500,000× faster) monomer denaturation as measured through this β-sheet loss (Hammarstrom, P.; et al. Proc. Natl. Acad. Sci. USA 2002, 99, 16427-16432).
FIG. 11 is a plot of the timecourse analysis of WT-TTR (3.6 μM) tetramer dissociation (6.0 M urea) in the absence (▴) and presence of 7.2 μM (⋄) and 3.6 μM (◯) concentrations of inhibitors 25, 47, and 64 (see color scheme within Figure to differentiate inhibitors). Slow tetramer dissociation is not detectable by far-UV CD spectroscopy, but this process is linked to rapid (˜500,000× faster) monomer denaturation as monitored by loss of β-sheet content easily followed by circular dichroism spectroscopy. […]

For the next series, the target named is T3, TTR (Homo sapiens, UniProt P02766).
T3 construct: made in house
Kind of series: analytical ultracentrifugation of TTR quaternary structure under amyloidogenic conditions. Particulars: 27 at 7.2 μM, TTR 3.6 μM, 72 h at pH 4.4, 37° C.; tetramer expected 55.0 kDa. As to the method: To ensure that these C1-arylated dibenzofurans inhibit TTR fibril formation by native state stabilization (i.e. tetramer stabilization), we studied the TTR quaternary structure by analytical ultracentrifugation after a preincubation period of 72 h under amyloidogenic conditions (pH 4.4, 37° C.). […] In the absence of 27, TTR aggregated into very high molecular weight oligomers that sedimented rapidly in the ultracentrifugation experiment (data not shown). […]
FIG. 8 is a plot of the absorbance at 280 nm versus distance from the center in the sedimentation velocity study on TTR ([…]) after being preincubated with 27 ([…]) and after another incubation period where the pH was dropped to 4.4 for 72 h, a time frame that results in maximal amyloid formation in the absence of inhibitor. […]
FIG. 9 is a plot of the absorbance at 280 nm versus distance from the center in the equilibrium ultracentrifugation studies on TTR ([…]) after being preincubated with 27 ([…]) and after another incubation period where the pH was dropped to 4.4 for 72 h, a time frame that results in maximal amyloid formation in the absence of inhibitor. […]

For series [3], the target named is T4, TTR in human blood plasma (Homo sapiens, UniProt P02766).
T4 construct: from tissue; host or cells: human blood plasma
Put plainly: plasma TTR binding selectivity, antibody capture method. The following applies: inhibitor 10.8 μM, 24 h, 37° C. The method, then:
Inhibitor binding selectivity to TTR in human blood plasma was assessed using a previously established antibody capture method (Purkey, H. E.; et al. Proc. Natl. Acad. Sci. USA 2001, 98, 5566-5571). In this evaluation, inhibitors (10.8 μM, ˜2-3× the natural concentration of TTR) are incubated in human blood plasma for 24 h at 37° C. Quenched sepharose resin is then added to the plasma to remove any small molecules that would bind to the resin as opposed to TTR. TTR and any TTR-bound small molecule is then immunocaptured using a polyclonal TTR antibody covalently attached to sepharose resin. After washing the resin (5×10 min washes), the antibody-TTR complex is dissociated at high pH and analyzed by RP-HPLC. The relative stoichiometry between TTR and inhibitor is then calculated from their HPLC peak areas using standard curves.
The procedures used for bacterial expression of TTR (Lai, Z.; et al. Biochemistry 1996, 35, 6470-6482), the stagnant fibril formation assay (Colon, W.; Kelly, J. W. Biochemistry 1992, 31, 8654-8660; Lai, Z.; et al. Biochemistry 1996, 35, 6470-6482), the blood plasma binding selectivity assay (Purkey, H. E.; et al. Proc. Natl. Acad. Sci. USA 2001, 98, 5566-5571), and analytical ultracentrifugation (Lashuel, H. A.; et al. Biochemistry 1998, 37, 17851-17864) have all been described in detail previously.

For series [4], the target named is T1, WT-TTR. Particulars: inhibitor 7.2 μM, WT-TTR 3.6 μM, pH 4.4, 72 h; cited from earlier work.

Values joined by “and” are separate entries in the source; they are usually repeats but may differ in a detail not shown here. Equal values may be shown once.

Take `O=C(O)c1cccc2c1oc1c(C(=O)O)ccc(Oc3cc(Cl)cc(Cl)c3)c12` [Compound 47]: the “order of fibrils formed at the end of the time course” value on WT-TTR [1] (after 169 hours, FIG. 10) is “shows the most fibrils formed”. Further, at WT-TTR [1], the “rate of TTR amyloidogenesis mediated by partial acidification relative to control” value was “dramatically slowed in a dose-dependent fashion”. The “precipitation in the absence of TTR” value in series [2] is reported as “no measurable precipitation”. The “rate of TTR tetramer dissociation in 6M urea” value (from here on “rate … in 6M urea”) at WT-TTR tetramer was “markedly slowed in a dose-dependent fashion”.

On to `O=C(O)c1cccc2c1oc1c(C(=O)O)ccc(Nc3cccc(Cl)c3)c12` [Compound 27], for which, on TTR, the “hydrodynamic molecular weight of TTR by equilibrium analytical ultracentrifugation” value was 55.1±0.4 kDa and 55.0±0.2 kDa; the “hydrodynamic molecular weight of TTR by sedimentation velocity” value is 57.1±0.3 kDa and 57.1±0.2 kDa. For the same compound, the “precipitation in the absence of TTR” value in series [2] is on record as “no measurable precipitation”.

In the case of `O=C(O)c1cccc2c1oc1c(C(=O)O)ccc(Nc3ccccc3C(F)(F)F)c12` [Compound 25], the “rate of TTR amyloidogenesis mediated by partial acidification relative to control” value at WT-TTR [1] is reported as “dramatically slowed in a dose-dependent fashion”. In series [2], the “precipitation in the absence of TTR” value is reported as “no measurable precipitation”. Besides, the “order of effect on tetramer dissociation at the end of the time course” value at WT-TTR tetramer (after 169 hours, 6.0 M urea, FIG. 11) was “most effective in dissociating tetramers”. Moreover, the “rate … in 6M urea” value on WT-TTR tetramer is on record as “markedly slowed in a dose-dependent fashion”.

With `O=C(O)c1cccc2c1oc1c(C(=O)O)ccc(-c3cc(C(F)(F)F)cc(C(F)(F)F)c3)c12` [Compound 64], the “rate of TTR amyloidogenesis mediated by partial acidification relative to control” value at WT-TTR [1] was “dramatically slowed in a dose-dependent fashion”. Moreover, the “rate … in 6M urea” value on WT-TTR tetramer is given as “markedly slowed in a dose-dependent fashion”.

For `O=C(O)c1cccc2c1oc1c(C(=O)O)cccc12` [Compound 1, dibenzofuran-4,6-dicarboxylic acid, reference compound], the “binding selectivity to TTR in human blood plasma” value in series [3] is reported as “no measurable binding selectivity”. For the same compound, the “decrease of the extent of WT-TTR amyloid formation” value at WT-TTR [4] is 90%.
